Source: patent US6593480B2 (Abbott Laboratories, priority 1999, dated 2003)

molecular target: T1, Human glucocorticoid receptors (Homo sapiens, UniProt P04150); test: Radioligand filter binding assay, displacement of 3(H)-dexamethasone from human glucocorticoid receptor cytosol; conditions: 1.7 μM test compound; inhibition of 3(H)-dex binding to hGR
T1 construct: made in house; host or cells: Sf9 insect cells, recombinant baculovirus (BAC-TO-BAC)
T1 sequence (P04150 1-777): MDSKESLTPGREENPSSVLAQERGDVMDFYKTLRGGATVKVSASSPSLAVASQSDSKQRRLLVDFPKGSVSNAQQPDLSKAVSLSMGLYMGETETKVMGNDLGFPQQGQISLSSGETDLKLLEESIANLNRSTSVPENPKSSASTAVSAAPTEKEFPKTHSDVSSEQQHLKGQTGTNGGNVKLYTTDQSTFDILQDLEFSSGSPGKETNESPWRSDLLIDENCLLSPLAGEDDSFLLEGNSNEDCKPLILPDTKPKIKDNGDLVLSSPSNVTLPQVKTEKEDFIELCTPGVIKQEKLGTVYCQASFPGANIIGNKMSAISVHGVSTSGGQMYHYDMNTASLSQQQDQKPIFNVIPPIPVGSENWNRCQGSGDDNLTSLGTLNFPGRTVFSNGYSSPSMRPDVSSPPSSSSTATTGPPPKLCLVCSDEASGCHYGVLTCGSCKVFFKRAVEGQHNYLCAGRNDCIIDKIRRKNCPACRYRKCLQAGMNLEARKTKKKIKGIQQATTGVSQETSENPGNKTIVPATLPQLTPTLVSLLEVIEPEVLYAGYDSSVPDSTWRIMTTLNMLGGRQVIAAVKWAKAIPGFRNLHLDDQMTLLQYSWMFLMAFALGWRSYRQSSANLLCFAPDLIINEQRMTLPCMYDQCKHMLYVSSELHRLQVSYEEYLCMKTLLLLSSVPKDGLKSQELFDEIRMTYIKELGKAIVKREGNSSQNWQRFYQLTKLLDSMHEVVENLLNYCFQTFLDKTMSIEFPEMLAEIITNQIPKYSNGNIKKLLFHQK
Procedure: Dexamethasone hereafter referred to as dex was purchased from SIGMA. […] Human glucocorticoid receptors were extracted from Sf9 cells infected with a recombinant baculovirus transfer vector containing the cloned hGR genes. […] The recombinant baculovi, uses expressing hGR were amplified and used to infect Sf9 cells. Infected cells were harvested 48 hrs post infection. […] The concentration of hGR in the extract was measured as specific ^3(H)-dex binding with the G25-assay as described in J. Steroid Biochem. Molec. […] The extract was aliquoted and stored at −70° C.
The filter binding assay: Dilution series of the test compounds and dex as reference were made from 10 mM (1 mM dex) stock solutions in DMSO. 10 μl of the dilutions was added in duplicates to the wells. The cell extracts were diluted 10 fold in EPMo +MTG buffer (1 mM EDTA, HPO4 20 mM (pH8), 6 mM MTG). […] 110 μl of the diluted ^3(H)-dex were added to the wells. The final concentration of hGR in the experiment was estimated to 1 nM. All preparations were made in ambient temperature (20-25° C.) on ice and with +4° C. temperated buffers. The plates were incubated over night at +4° C. (15-20hrs).
The incubation was stopped by filtration through GF/B filter on the Tomtec Cellharvester. The filtration on the Tomtec Cellharvester was programmed as follows: 1) Preparation before filtration with EP buffer (1 mM EDTA 20 mM HPO4 (pH8)) 2×(Wash/Asp 0.6 sec., Asp 0.5 sec.); 2) Prewet of GF/B filter with EP+PEI buffer (EP buffer, 0.3% Polyesthylenimine) (Asp 0.8 sec.). 3) Filtration/harvesting of the 96-well incubation plate 3×(Wash/Asp 0.6 sec., Asp 0.5 sec.). The GF/B filter was dried for at least 1 hr at 65° C. A MeltiLex scintillation wax was melted onto the filter with the Microsealer. The filter was placed in a samplebag, which was thereafter trimmed with scissors to fit the filter cassette. The cassette were placed in the Microbeta and measured for 1 min/position, returning ccpm (conrected counts per minute).
The Microbeta-instrument generates the mean cpm (counts per minute) value/minute and corrects for individual variations between the detectors thus generating corrected cpm values.

Structure (SMILES) | GR BINDING (% Inhibition @ 1.7 μM) [%]
COCCNC(=O)c1cccc(C2Oc3cccc(OC)c3-c3ccc(NS(C)(=O)=O)cc32)c1 (stereo not shown) [Example 64, (1-methoxy-6-(3-(2-methoxyethyl)aminocarbonyl)phenyl-6H-dibenzo(b,d)pyran-8-yl)-methanesulfonamide] | 44.3
COc1cccc2c1-c1ccc(NC(=O)C(C)C)cc1C(c1ccccc1)O2 (stereo not shown) [Example 14] | 85.1
CCS(=O)(=O)Nc1ccc2c(c1)C(c1ccccc1)Oc1cccc(OC)c1-2 (stereo not shown) [Example 7, (1-methoxy-6-phenyl-6H-dibenzo(b,d)pyran-8-yl)ethanesulfonamide] | 90.6
COc1cccc2c1-c1ccc(CS(N)(=O)=O)cc1C(C1CCCCC1=O)O2 (stereo not shown) [Example 72, (1-methoxy-6-(2-(1-oxocyclohexyl))-6H-dibenzo(b,d)pyran-8-yl)methanesulfonamide] | 58.8

same assay, conditions: 1.7 μM test compound; inhibition of 3(H)-dex binding to hGR; read-out: GR BINDING (% Inhibition @ 1.7 μM)

Structure (SMILES) | inhibition at 1.7 µM [%]
COc1cccc2c1-c1ccc(NS(C)(=O)=O)cc1C(c1ccc(/C=C/c3ccccc3)s1)O2 (stereo not shown) [Example 101, N-(1-methoxy-6-{5-[(E)-2-phenylethenyl]-2-thienyl}-6H-benzo[c]chromen-8-yl)methanesulfonamide] | 91.3
C[Si](C)(C)CCCc1cccc(C2Oc3cccc(OC(F)F)c3-c3ccc(NS(C)(=O)=O)cc32)c1 (stereo not shown) [Example 134, N-(1-(difluoromethoxy)-6-{3-[3-(trimethylsilyl)propyl]phenyl}-6H-benzo[c]chromen-8-yl)methanesulfonamide] | 88.8
COc1cccc2c1-c1ccc(CC(N)=O)cc1C(c1ccccc1)O2 (stereo not shown) [Example 12, (1-methoxy-6-phenyl-6H-dibenzo(b,d)pyran-8-yl)acetamide] | 86.1
COc1cccc2c1-c1ccc(NS(C)(=O)=O)cc1C(c1cccc(CCCC(=O)N3CCCCC3)c1)O2 (stereo not shown) [Example 142, N-(1-methoxy-6-{3-[4-oxo-4-(1-piperidinyl)butyl]phenyl}-6H-benzo[c]chromen-8-yl)methanesulfonamide] | 78.2
COc1cccc2c1-c1ccc(NS(C)(=O)=O)cc1C(C#N)O2 (stereo not shown) [Example 90, N-(6-cyano-1-methoxy-6H-benzo[c]chromen-8-yl)methanesulfonamide] | 55.1
CCOC(=O)CCCCCC1Oc2cccc(OC)c2-c2ccc(NS(C)(=O)=O)cc21 (stereo not shown) [Example 79, ethyl 6-{1-methoxy-8-[(methylsulfonyl)amino]-6H-benzo[c]chromen-6-yl}hexanoate] | 66.1
COc1cccc2c1-c1ccc(NS(C)(=O)=O)cc1C(c1cccc(N(C)S(=O)(=O)c3ccc(-c4ccon4)s3)c1)O2 (stereo not shown) [Example 149, 5-(3-isoxazolyl)-N-(3-{1-methoxy-8-[(methylsulfonyl)amino]-6H-benzo[c]chromen-6-yl}phenyl)-N-methyl-2-thiophenesulfonamide] | 69
C=Cc1cccc2c1-c1ccc(NS(C)(=O)=O)cc1C(c1ccccc1)O2 (racemic) [Example 37] | 94.8
CS(=O)(=O)Nc1ccc2c(c1)C(c1ccccc1)Oc1cccc(CO)c1-2 (stereo not shown) [Example 104, N-[1-(hydroxymethyl)-6-phenyl-6H-benzo[c]chromen-8-yl]methanesulfonamide] | 86.8
CCCC1Oc2cccc(OC(F)F)c2-c2ccc(NS(C)(=O)=O)cc21 (racemic) [Example 27] | 86.8
CC#Cc1cccc2c1-c1ccc(NS(C)(=O)=O)cc1C(c1ccccc1)O2 (racemic) [Example 39] | 90.6
CCOC(=O)CCCc1cccc(C2Oc3cccc(OC)c3-c3ccc(NS(C)(=O)=O)cc32)c1 (stereo not shown) [Example 150, ethyl 4-(3-{1-methoxy-8-[(methylsulfonyl)amino]-6H-benzo[c]chromen-6-yl}phenyl)butanoate] | 90.8
CCOC(=O)CCCc1cccc(C2Oc3cccc(OC(F)F)c3-c3ccc(NS(C)(=O)=O)cc32)c1 (stereo not shown) [Example 115, ethyl 4-(3-{1-(difluoromethoxy)-8-[(methylsulfonyl)amino]-6H-benzo[c]chromen-6-yl}phenyl)butanoate] | 83.5
COc1cccc2c1-c1ccc(CCN)cc1C(c1ccccc1)O2 (stereo not shown) [Example 19, (1-methoxy-6-phenyl-6H-dibenzo(b,d)pyran-8-yl)ethylamine] | 66
CS(=O)(=O)Nc1ccc2c(c1)C(c1ccccc1)Oc1cccc(-c3ccco3)c1-2 (racemic) [Example 40] | 69.3
CCOC(=O)/C=C/COc1cccc(C2Oc3cccc(OC)c3-c3ccc(NS(C)(=O)=O)cc32)c1 (stereo not shown) [Example 94, ethyl (2E)-4-(3-{1-methoxy-8-[(methylsulfonyl)amino]-6H-benzo[c]chromen-6-yl}phenoxy)-2-butenoate] | 79.6
CCOC(=O)CCC1Oc2cccc(OC)c2-c2ccc(NS(C)(=O)=O)cc21 (stereo not shown) [Example 46] | 84.6

Structure (SMILES) | inhibition at 1.7 µM [%]
COc1cccc2c1-c1ccc(NCC3CC3)cc1C(c1ccccc1)O2 (stereo not shown) [Example 20, (1-methoxy-6-phenyl-6H-dibenzo(b,d)pyran-8-yl)cyclopropylmethylamine] | 54.4
CS(=O)(=O)Nc1ccc2c(c1)C(c1cccc(CCCC(=O)O)c1)Oc1cccc(OC(F)F)c1-2 (stereo not shown) [Example 121, 4-(3-{1-(difluoromethoxy)-8-[(methylsulfonyl)amino]-6H-benzo[c]chromen-6-yl}phenyl)butanoic acid] | 76.6
COc1cccc2c1-c1ccc(NS(C)(=O)=O)cc1C(Cc1cc(F)cc(F)c1)O2 (stereo not shown) [Example 85, N-[6-(3,5-difluorobenzyl)-1-methoxy-6H-benzo[c]chromen-8-yl]methanesulfonamide] | 81.6
COc1ccc(S(=O)(=O)N(C)c2cccc(C3Oc4cccc(OC)c4-c4ccc(NS(C)(=O)=O)cc43)c2)cc1 (stereo not shown) [Example 148, 4-methoxy-N-(3-{1-methoxy-8-[(methylsulfonyl)amino]-6H-benzo[c]chromen-6-yl}phenyl)-N-methylbenzenesulfonamide] | 82.7
COc1cccc2c1-c1ccc(NS(C)(=O)=O)cc1C(c1cccc(Oc3ccc(C(C)=O)cc3)c1)O2 (stereo not shown) [Example 140, N-{6-[3-(4-acetylphenoxy)phenyl]-1-methoxy-6H-benzo[c]chromen-8-yl}methanesulfonamide] | 84.1
CCCN(C)c1ccc(C2Oc3cccc(OC(F)F)c3-c3ccc(N)c(Br)c32)cc1 (stereo not shown) [Example 29, (1-difluoromethoxy-6-(4-(N-propyl-N-methylamino)phenyl)-7-bromo-6H-dibenzo(b,d)pyran-8-yl)-amine] | 55
COCCCCCCc1cccc(C2Oc3cccc(OC(F)F)c3-c3ccc(NS(C)(=O)=O)cc32)c1 (stereo not shown) [Example 141, N-{1-(difluoromethoxy)-6-[3-(6-methoxyhexyl)phenyl]-6H-benzo[c]chromen-8-yl}methanesulfonamide] | 93.6
COc1cccc2c1-c1ccc(NS(C)(=O)=O)cc1C(c1cccc(CCCC#N)c1)O2 (stereo not shown) [Example 112, N-{6-[3-(3-cyanopropyl)phenyl]-1-methoxy-6H-benzo[c]chromen-8-yl}methanesulfonamide] | 91.7
CCOC(=O)C(C)CCCc1cccc(C2Oc3cccc(OC(F)F)c3-c3ccc(NS(C)(=O)=O)cc32)c1 (stereo not shown) [Example 135, ethyl 5-(3-{1-(difluoromethoxy)-8-[(methylsulfonyl)amino]-6H-benzo[c]chromen-6-yl}phenyl)-2-methylpentanoate] | 83.7
COc1cccc2c1-c1ccc(NS(=O)(=O)/C=C/c3ccccc3)cc1C(c1ccccc1)O2 (stereo not shown) [Example 11, (1-methoxy-6-phenyl-6H-dibenzo(b,d)pyran-8-yl)-(2-phenyl-E-ethenyl) sulfonamide] | 57.8
COc1cccc2c1-c1ccc(NS(C)(=O)=O)cc1C(c1cccc(CCCC(=O)O)c1)O2 (stereo not shown) [Example 151, 4-(3-{1-methoxy-8-[(methylsulfonyl)amino]-6H-benzo[c]chromen-6-yl}phenyl)butanoic acid] | 69.5
COc1cc(C)cc2c1-c1ccc(NS(C)(=O)=O)cc1C(c1ccccc1)O2 (stereo not shown) [Example 67, (1-methoxy-3-methyl-6-phenyl-6H-dibenzo(b,d)pyran-8-yl)methanesulfonamide] | 49.3
C=CCOc1cccc2c1-c1ccc(NS(C)(=O)=O)cc1C(c1ccccc1)O2 (stereo not shown) [Example 78, N-[1-(allyloxy)-6-phenyl-6H-benzo[c]chromen-8-yl]methanesulfonamide] | 77.9
COc1cccc2c1-c1ccc(NS(C)(=O)=O)cc1C(Cc1cccc(C#N)c1)O2 (stereo not shown) [Example 49] | 75.1
COc1cccc2c1-c1ccc(NC(=O)C(F)(F)F)cc1C(c1ccccc1)O2 (stereo not shown) [Example 22, (1-methoxy-6-phenyl-6H-dibenzo(b,d)pyran-8-yl)trifluoroacetamide] | 87.9
COc1cccc2c1-c1ccc(NS(C)(=O)=O)cc1C(c1cccc(N(C)C(C)=O)c1)O2 (stereo not shown) [Example 110, N-(3-{1-methoxy-8-[(methylsulfonyl)amino]-6H-benzo[c]chromen-6-yl}phenyl)-N-methylacetamide] | 74.8
